Entries after “also recorded” stand apart in the source; their conditions may differ.
What was measured:
[1] = test system: patients with advanced CHF and reduced EF; experiment: Trial echocardiography; format: in vivo, human
Method: Echocardiography was performed by a technician blinded to treatment allocation and all echo images were analyzed and interpreted by one independent investigator blinded to treatment allocation and clinical history of the patients. Two dimensional images were recorded with a Vivid 7/E9 ultrasound system (GE, Horten, Norway) with a 3 MHz Doppler transducer. A detailed echocardiographic examination including dimensions, cardiac systolic and diastolic function, valve performance and systolic pulmonary artery pressure was performed at baseline (Table 5). A shorter protocol including left ventricular dimensions and function, stroke volume and cardiac output was used for comparison of changes over time (Table 9 and 10). Left ventricular end-systolic and end-diastolic volumes and left ventricular ejection fraction (LVEF) were measured using the modified biplane Simpson's method. LVEF was also measured using the Teichholz method. Because of missing data on LVEF by the Simpson's method due to low image quality, changes in LVEF over time was calculated using the Teichholz method. Left atrial volumes were calculated using the biplane area length method from the apical four- and two-chamber views and indexed to the body surface area. The E/e′ ratio was calculated using the peak E-wave velocity of the mitral inflow and the averaged of septal and lateral tissue Doppler recordings. Tricuspid annular peak systolic excursion (TAPSE) was assessed with M-mode echocardiography. Speckle tracking was used for left ventricular longitudinal strain. […] Stroke volume was derived from the left ventricular outflow tract (LVOT) area and the LVOT […] time integral (VTI) (LVOT area×LVOT VTI). Cardiac output was calculated as the echo derived stroke volume×heart rate.

[2] = test system: phosphorylation of serine 23-24 on troponin I; experiment: Cardiomyocyte protein immunoblotting of troponin I phosphorylation; format: cell-based, mouse; details: for troponin I serine 23-24 phosphorylation signal: 15 min treatment, vs placebo
Method: Isolated cardiomyocytes were treated for 15 min in different conditions (Placebo, Ghrelin, D-Lys 3 GHS-R1a, D-Lys 3 GHS-R1a+Ghrelin). Thereafter cardiomyocytes were pelleted and homogenated. Protein lysates were separated by electrophoresis and transferred onto membranes. Membranes were incubated with primary antibody: rabbit phospho-troponin I (cardiac) ([…]) antibody (Cell Signaling #4004), mouse troponin 1 (Millipore MAB1691A). Then infrared-labelled secondary antibodies (IRDye 680 and IRDye 800, 1:5000, Licor) were used. Immunoreactive bands were analyzed using the Odyssey Infrared Imaging System. Band densities were quantified with Image J, normalized to GAPDH and final data expressed as fold increase compared to Placebo group.

[3] = Plasma acyl ghrelin pharmacokinetics (custom ELISA); format: in vivo, human
Method: In samples dedicated for ghrelin measurements a protease inhibitor cocktail was prepared, consisting of 5.5 μl 10 mM KR-62436 (DPP4 inhibitor) in DMSO and a SIGMAFAST® protease inhibitor tablet (both produced by Sigma-Aldrich Corp., St. Louis, Mo., USA) dissolved in 2100 μl of distilled water (50×stock). Blood samples were drawn using 6 mL EDTA plasma tubes, immediately put on ice and 160 μl of the 50×protease inhibitor cocktail was added. Tubes were vortexed for 10 seconds and centrifuged at 4° C., 10 min, 2500 relative centrifugal force (RCF, or g). The resulting supernatant (plasma) was then pipetted into Eppendorf tubes (450 μl each) and immediately frozen at −70° C. until analyzed.
Plasma concentrations of active (acylated) ghrelin were assayed by a custom ELISA using electrochemiluminescence detection. Plasma samples were thawed and vortexed. They were then analyzed in duplicate on 96-well multispot plates (Meso Scale Diagnostics, Rockville, Md., USA) coated with capture antibodies against acyl-ghrelin according to manufacturer instructions. The Meso Scale Diagnostics Sector Imager 2400 was used to read the plates. The coefficients of variation (CV %) calculated from plasma concentrations after curve fitting were 9.3/3.5 (intra/inter-assay CV %). The lower limit of detection was 3.2 ng/L and upper limit was set at 10,000 ng/L.

For `CCCCCCCC(=O)OC[C@H](NC(=O)[C@H](CO)NC(=O)CN)C(=O)N[C@@H](Cc1ccccc1)C(=O)N[C@@H](CC(C)C)C(=O)N[C@@H](CO)C(=O)N1CCC[C@H]1C(=O)N[C@@H](CCC(=O)O)C(=O)N[C@@H](Cc1cnc[nH]1)C(=O)N[C@@H](CCC(N)=O)C(=O)N[C@@H](CCCNC(=N)N)C(=O)N[C@H](C(=O)N[C@@H](CCC(N)=O)C(=O)N[C@@H](CCC(N)=O)C(=O)N[C@@H](CCCNC(=N)N)C(=O)N[C@@H](CCCCN)C(=O)N[C@@H](CCC(=O)O)C(=O)N[C@@H](CO)C(=O)N[C@@H](CCCCN)C(=O)N[C@@H](CCCCN)C(=O)N1CCC[C@H]1C(=O)N1CCC[C@H]1C(=O)N[C@@H](C)C(=O)N[C@@H](CCCCN)C(=O)N[C@@H](CC(C)C)C(=O)N[C@@H](CCC(N)=O)C(=O)N1CCC[C@H]1C(=O)N[C@@H](CCCNC(=N)N)C(=O)O)C(C)C` [Ghrelin], the “CO (echocardiography)” value ([1]; 2-5 days FU) was 3.8 ± 1.3 L/min, the “E/e′” value ([1]; 2-5 days FU) was 16.2 ± 8.3 ratio and the LVEDD ([1]; 2-5 days FU) was 66 ± 10 mm. For the same molecule, the LVEF ([1]; 2-5 days FU) was 28.5 ± 11.9%, the LVESD ([1]; 2-5 days FU) was 57 ± 11 mm and the “SV (echocardiography)” value ([1]; 2-5 days FU) was 52.5 ± 20.6 mL. For the same molecule, the TAPSE ([1]; 2-5 days FU) was 11.8 ± 6.0 mm, the Strain ([1]; 2-5 days FU, n = 12) was 10.4 ± 6.4% and the “CO (echocardiography)” value ([1]; +30 min) was 4.1 ± 1.5 L/min. For the same molecule, the “E/e′” value ([1]; +30 min) was 15.3 ± 6.6 ratio, the LVEDD ([1]; +30 min) was 65 ± 9 mm and the LVEF ([1]; +30 min) was 30.1 ± 11.2%. The LVESD ([1]; +30 min) was 56 ± 11 mm, the “SV (echocardiography)” value ([1]; +30 min) was 62.2 ± 23.8 mL and the TAPSE ([1]; +30 min) was 14.1 ± 5.4 mm. For the same molecule, the Strain ([1]; +30 min, n = 13) was 12.46 ± 4.1%, the “CO (echocardiography)” value ([1]; BL) was 3.8 ± 1.5 L/min and the “E/e′” value ([1]; BL) was 15.2 ± 5.5 ratio. For the same molecule, the LVEDD ([1]; BL) was 66 ± 9 mm, the LVESD ([1]; BL) was 58 ± 9 mm and the “SV (echocardiography)” value ([1]; BL) was 54.3 ± 18.4 mL. For the same molecule, the TAPSE ([1]; BL) was 13.0 ± 5.9 mm, the LVEF ([1]; BL, Teichholz method) was 27.4 ± 7.4% and the Strain ([1]; BL, n = 13 in ghrelin group) was 11.9 ± 6.3%. The “CO (echocardiography)” value ([1]; Baseline (Table 10)) was 3.8 ± 1.5 L/min, the “E/e′” value ([1]; Baseline (Table 10)) was 15.2 ± 5.5 ratio and the LVEDD ([1]; Baseline (Table 10)) was 66 ± 9 mm. The LVEF ([1]; Baseline (Table 10)) was 27.4 ± 7.4%, the LVESD ([1]; Baseline (Table 10)) was 58 ± 9 mm and the “SV (echocardiography)” value ([1]; Baseline (Table 10)) was 54.3 ± 18.4 mL. For the same molecule, the TAPSE ([1]; Baseline (Table 10)) was 13.0 ± 5.9 mm, the Strain ([1]; Baseline (Table 10), n = 12 in ghrelin group) was 11.9 ± 6.3% and the “CO (echocardiography)” value ([1]; INF + 60 min) was 3.9 ± 1.3 L/min. The “E/e′” value ([1]; INF + 60 min) was 17.1 ± 9.5 ratio, the LVEDD ([1]; INF + 60 min) was 67 ± 9 mm and the LVEF ([1]; INF + 60 min) was 29.1 ± 11.5%. For the same molecule, the LVESD ([1]; INF + 60 min) was 58 ± 11 mm, the “SV (echocardiography)” value ([1]; INF + 60 min) was 56.3 ± 21.4 mL and the TAPSE ([1]; INF + 60 min) was 13.1 ± 4.8 mm. The Strain ([1]; INF + 60 min, n = 13) was 13.4 ± 4.6%, the “CO (echocardiography)” value ([1]; INF + 120 min) was 3.9 ± 1.4 L/min and the “E/e′” value ([1]; INF + 120 min) was 16.3 ± 8.9 ratio. For the same molecule, the LVEDD ([1]; INF + 120 min) was 67 ± 10 mm, the LVEF ([1]; INF + 120 min) was 29.8 ± 11.4% and the LVESD ([1]; INF + 120 min) was 57 ± 11 mm. For the same molecule, the “SV (echocardiography)” value ([1]; INF + 120 min) was 59.5 ± 25.5 mL, the TAPSE ([1]; INF + 120 min) was 14.2 ± 5.4 mm and the Strain ([1]; INF + 120 min, n = 13) was 13.2 ± 5.8%. The “change in CO by echocardiography” value ([1]; in vivo) was “trends toward a difference in change of CO in favor of ghrelin; also recorded: a nominal interaction suggesting improvement with ghrelin but no significant differences in change”, the “change in E/e′” value ([1]; in vivo) was “no differences in change; also recorded: no interaction with or differences in change” and the “change in EF” value ([1]; in vivo) was “a trend toward a greater absolute (p=0.12) and percent change (p=0.14) in EF with ghrelin; also recorded: a nominal interaction suggesting improvement in EF with ghrelin”. The “change in LVEDD” value ([1]; in vivo) was “no change or differences in change”, the “change in LVESD” value ([1]; in vivo) was “no change or differences in change” and the “change in SV by echocardiography” value ([1]; in vivo) was “a significant difference in change of SV in favor of ghrelin; also recorded: a significant interaction suggesting improvement with ghrelin”. For the same molecule, the “change in TAPSE” value ([1]; in vivo) was “a trend toward a greater difference in change; also recorded: a trend toward an interaction suggesting improvement in TAPSE”, the “segmental strain by echocardiography” value ([1]; in vivo) was “numerical differences in favor of ghrelin but no statistical significance” and the “total troponin I expression” value [2] was “without change”. The “troponin I serine 23-24 phosphorylation signal” value [2] was “less cTnI phosphorylation (hypophosphorylation)”, the “troponin I serine 23-24 phosphorylation signal” value ([2]; listed as ghrelin) was “lower compared to placebo” and the “plasma acyl ghrelin” value ([3]; 2-5 days follow-up) was “normalized”. For the same molecule, the “plasma acyl ghrelin” value ([3]; 30 minutes after infusion) was “near normalized”, the “median plasma acyl ghrelin concentrations” value ([3]; during infusion, treatment group) was “quickly reached near the maximum of the assay” and the level at 0.5 h ([3]; human, plasma, 0.1 ug/kg/min, Infusion 30 min, iv 0.1 μg/kg/min, read-out: plasma acyl ghrelin (median, interquartile range)) was 6.11 ng/mL. The level at 1 h ([3]; human, plasma, iv, 0.1 ug/kg/min, Infusion 60 min, read-out: plasma acyl ghrelin (median, interquartile range)) was 6.84 ng/mL and the level at 2 h ([3]; human, plasma, iv, 0.1 ug/kg/min, Infusion 120 min, read-out: plasma acyl ghrelin (median, interquartile range)) was 6.54 ng/mL.

— patent US20230346889A9, “TREATMENT OF ACUTE HEART FAILURE” (AnaCardio R&D AB, priority 2019, published 2023)
